How the values were obtained:
Cynomolgus monkey iPSCs = test: Cell cycle analysis of Cynomolgus monkey iPSCs (flow cytometry); assay type: cell-based; conditions: for percentage of events in G1 phase, mean / percentage of events in G2 phase, mean / percentage of events in S phase, mean: Cynomolgus monkey iPSCs, 24 h
Method: For the analysis of the cell cycle, monkey stem cells were detached with Accutase (Stem Cell Technologies) and plated at 15000 cells/cm2 in 6 well plates coated with Matrigel (BD Biosciences) in MT medium supplemented with 10 ng/ml ActivinA, 15 ng/ml FGF2, and 10 μM Rock inhibitor. Cells were expanded for 1 day and then synchronized by starvation for 7 h in MT medium without supplements FGF2 and ActivinA. Before flow cytometry, cells were incubated for 24 h with fresh MT medium containing supplements FGF2 and ActivinA and test items at 80 nM, 400 nM, and 2000 nM or 30 nM rapamycin as positive control to arrest cells in G1 phase. Human stem cells were detached with Accutase (Stem Cell Technologies) and plated at 40000 cells/cm2 in 6 well plates coated with Matrigel (BD Biosciences) in mTeSR1 supplemented with 10 μM Rock Inhibitor Y-27632 (Sigma-Aldrich). Cells were expanded for 3 days with daily medium change. Since human iPSCs lose their properties during starvation by growth factor withdrawal, stem cells were synchronized with 200 ng/ml Nocodazole (Sigma-Aldrich) for 5 h and washed subsequently 2 times with mTesR1 Medium. Before flow cytometry, cells were incubated for 24 h with fresh TesR1 medium containing test items at 80 nM, 400 nM, and 2000 nM or 30 nM rapamycin as positive control to arrest cells in G1 phase.
For cell cycle analysis, human iPSCs were washed with PBS, detached with Accutase (Stem Cell Technologies) and collected by centrifugation. Cells were stained for 1 h at 37° C. with 600 ul of 7 AAD/Saponin/RNAse mix ([…] 7 AAD (#559925, BD), 50 μg/ml RNase, and 0.03% Saponin dissolved in FACS buffer (PBS, 5% FBS, 10 mM Hepes)). Cynomolgus monkey iPSCs were washed with PBS, detached with Accutase (Stem Cell Technologies) and collected by centrifugation. Cells were stained for 30 min at 37° C. in 300 ul standard MT medium (with FGF2 and ActivinA) containing 1 ul Vybrant Dye Cycle Violet Stain (#V35003, 1000× stock, Invitrogen) per ml medium. Additionally 2 ul 7 AAD (50 μg/ml 7 AAD) were added without permeabilization to label dead cells; cells were incubated for 10 min at 37° C. Flow cytometry analysis was performed using a Canto II cytometer (BD Biosciences) and data were analysed with the FlowJo software.

Aqueous solubility = assay type: physicochemical
MADD gene transcript = test: 2-week dose-range finding toxicity study in cynomolgus monkey: MADD splicing in spleen, duodenum, testis; assay type: in vivo; conditions: cynomolgus monkey 2 weeks, highest dose (0.75, 1.5, 3 and 6 mg/kg/day tested); all three organs
Method: Similar investigations were integrated into the 2-week dose-range finding toxicity study conducted in the cynomolgus monkey with RO7034067. For this purpose, spleen, duodenum, and testis were analyzed from the animals treated with 0.75, 1.5, 3 and 6 mg/kg/day. […] Since secondary pharmacology was detected in spleen, this organ was further analyzed for transcriptome-wide mRNA splicing or expression changes by RNA-sequencing. […] Furthermore, a dose-dependent trend for pathway expression changes was not detected. Therefore, while the few changes in RO7034067-mediated alternative transcript splicing are consistent with in vitro data and those of other SMN2 splicing modifiers, they seem not to fundamentally affect biological pathways or processes under the conditions of this study.

MADD gene transcripts = test: 2-week dose-range finding toxicity study in rat: MADD splicing in spleen, duodenum, testis; assay type: in vivo; conditions: rats treated 2 weeks, highest dose of 7.5 mg/kg/day
Method: Gene expression analysis was performed in spleen, duodenum, and testis in rats treated for 2 weeks (MADD gene). […] The changes in splicing of MADD transcripts are consistent with the observations of apoptosis in the GI tract observed at the same dose since MADD gene products have been reported to interfere with the apoptosis processes.

Compound: Cc1cn2nc(-c3cc(=O)n4cc(N5CCNC6(CC6)C5)ccc4n3)cc(C)c2n1 [RO7034067, 7-(4,7-diazaspiro[2.5]octan-7-yl)-2-(2,8-dimethylimidazo[1,2-b]pyridazin-6-yl)pyrido[1,2-a]pyrimidin-4-one]
- percentage of events in G1 phase, mean (Cynomolgus monkey iPSCs; 80 nM): 33.8%
- percentage of events in G2 phase, mean (Cynomolgus monkey iPSCs; 80 nM): 52.2%
- percentage of events in S phase, mean (Cynomolgus monkey iPSCs; 80 nM): 14.0%
- percentage of events in G1 phase, mean (Cynomolgus monkey iPSCs; 400 nM): 30.3%
- percentage of events in G2 phase, mean (Cynomolgus monkey iPSCs; 400 nM): 55.8%
- percentage of events in S phase, mean (Cynomolgus monkey iPSCs; 400 nM): 14.0%
- percentage of events in G1 phase, mean (Cynomolgus monkey iPSCs; 2000 nM): 25.3%
- percentage of events in G2 phase, mean (Cynomolgus monkey iPSCs; 2000 nM): 61.3%
- percentage of events in S phase, mean (Cynomolgus monkey iPSCs; 2000 nM): 13.4%
- effect on cell cycle (Cynomolgus monkey iPSCs; monkey iPSCs, concentration-dependent): cell cycle arrest in G2 phase
- aqueous solubility (Aqueous solubility): high aqueous solubility
- mRNA isoform specific qPCR of MADD gene transcript (MADD gene transcript): secondary pharmacological response
- gene expression analysis of MADD gene transcripts (MADD gene transcripts): splicing response

Reference: patent US12350273B2, “Treatment of SMA” (Hoffmann-La Roche Inc., priority 2017, dated 2025)
